Source: BigSolDB 2.1

Cc1cc(C)[nH]n1
solubility (mole fraction)
Details | in acetone | in acetonitrile | in ethanol | in ethyl acetate | in isopropanol | in methanol | in n-butanol | in n-propanol | in toluene
283.15 K | 0.0625 | 0.0276 | 0.12 | 0.0508 | 0.115 | 0.107 | 0.133 | 0.123 | 0.0339
285.65 K | 0.0691 | 0.0312 | 0.127 | 0.0578 | 0.121 | 0.112 | 0.14 | 0.13 | 0.0382
288.15 K | 0.0757 | 0.0359 | 0.133 | 0.0663 | 0.128 | 0.118 | 0.149 | 0.137 | 0.045
290.65 K | 0.0838 | 0.0408 | 0.14 | 0.077 | 0.134 | 0.123 | 0.158 | 0.145 | 0.0517
293.15 K | 0.0935 | 0.0455 | 0.148 | 0.0881 | 0.142 | 0.131 | 0.166 | 0.152 | 0.0593
295.65 K | 0.105 | 0.0508 | 0.155 | 0.1 | 0.149 | 0.137 | 0.176 | 0.16 | 0.0677
298.15 K | 0.116 | 0.0568 | 0.163 | 0.113 | 0.157 | 0.143 | 0.187 | 0.167 | 0.0769
300.65 K | 0.129 | 0.0635 | 0.171 | 0.128 | 0.164 | 0.15 | 0.199 | 0.175 | 0.0863
303.15 K | 0.143 | 0.0722 | 0.179 | 0.144 | 0.171 | 0.158 | 0.211 | 0.184 | 0.0979
305.65 K | 0.16 | 0.0806 | 0.187 | 0.161 | 0.18 | 0.165 | 0.224 | 0.194 | 0.114
308.15 K | 0.175 | 0.0916 | 0.196 | 0.18 | 0.19 | 0.173 | 0.237 | 0.203 | 0.133
310.65 K | 0.194 | 0.102 | 0.205 | 0.199 | 0.199 | 0.18 | 0.251 | 0.213 | 0.151
313.15 K | 0.213 | 0.116 | 0.217 | 0.223 | 0.211 | 0.19 | 0.265 | 0.226 | 0.171
